Data: patent US10358434B2, “2-(3-pyridinyl)-1H-benzimidazole derivative compound and medicament containing same” (NIHON MEDI-PHYSICS CO., LTD., priority 2014, dated 2019)

Legend:
[1] = test system: human adrenal gland section expressing aldosterone-producing adenoma; test: In vitro autoradiography using human adrenal adenoma; format: binding
Text: From adrenal gland excised from a human patient for treatment of primary aldosteronism, a portion containing aldosterone-producing adenoma was removed and was then frozen. The frozen adrenal gland was embedded in an embedding agent for production of a frozen tissue section (Tissue-Tek O.C.T. Compound, Sakura Finetek Japan). Using a freezing microtome (CM3050S, Leica Microsystems), a 7-μm thin slice section, which is schematically shown in FIGS. 17(a) and 17(b), was produced, and was preserved at −20° C. before use. In FIGS. 17, 71a and 71b indicate aldosterone-producing adenomas, 72a and 72b indicate normal adrenal cortexes, and 73a and 73b indicate normal adrenal medullas. A 5-33 kBq/mL solution was prepared by adding a suitable amount of each of Compounds [^18F] 100, [^18F] 200, [^123I] 400, [^18F] 500, and [^123I] 601 to [^123I] 610, which were obtained by the methods described in Examples 2, 4, 7, 9, 11, 13, 15, 17, 19, 21, 23, 25, 27, and 29, or [^123I] IMTO to a phosphate-buffered physiological saline containing 1 w/v % bovine serum albumin (not containing fatty acid). The radioactivity concentration was measured using an autowell gamma system (ARC-7001, manufactured by Hitachi Aloka Medical, Ltd.). The section was immersed in the obtained sample solution for 10 minutes. For Compounds [^18F] 100, [^18F] 200, [^123I] 400, [^18F] 500, [^123I] 601 and [^123I] 602, the section shown in FIG. 17(a) was used, and for Compounds […] [^123I] IMTO, both sections shown in FIGS. 17(a) and (b) were used. Each sample solution was washed off, and the section was then exposed to an imaging plate (BAS-SR2040, manufactured by FUJIFILM Holdings Corporation) (IP) for 16-20 hours, and thereafter, an autoradiogram was obtained using a fluoro-image analyzer (FLA-7000, manufactured by FUJIFILM Holdings Corporation).
In order to quantitatively compare differences between images caused by ^123I and ^18F nuclides, a correction was made by calculating accumulation of radioactivity within the range of a region of interest (ROI) by means of integral calculation based on half-life, added radioactivity and IP contact time.
610. FIG. 18(b), FIG. 19(b), FIG. 20(b), FIG. 21(b), FIG. 22(a), FIG. 23(a), FIG. 24(a), FIG. 25(a), FIG. 26(a), FIG. 27(a), FIG. 28(a), FIG. 29(a), FIG. 30(a), and FIG. 31(a) each show an autoradiogram of [^123I] IMTO. […] 100, [^18F] 200, [^123I] 400, [^18F] 500, and [^123I] 601 to [^123I] […] The ROI having the same area as each other was established in a normal site and in a site in which aldosterone-producing adenoma had developed. Then, the PSL value (B1) indicating accumulation of radioactivity in the sites of normal adrenal cortexes 72a and 72b was compared with the PSL value (B2) indicating accumulation of radioactivity in the sites of aldosterone-producing adenomas 71a and 71b. In Table 7, the B1, B2 and B2/B1 values of [^18F] 100 indicate the mean values for the number of tests (n), respectively.

[2] = In vivo kinetics experiment (radioactivity distribution); set-up: species or system Wistar male rat; details: rat i.v., mean ± SD
Protocol: Each of Compounds [^18F] 100, [^18F] 200, [^123I] 400, [^18F] 500, and [^123I] 601 to 610 obtained by the methods described in Examples 2, 4, 7, 9, 11, 13, 15, 17, 19, 21, 23, 25, 27, and 29, or [^123I] IMTO, was diluted with a physiological saline containing 1 w/v % ascorbic acid to prepare a solution to be administered. The above described compound (approximately 1 to 3.7 MBq) was injected into the caudal vein of a Wistar male rat (9 weeks old) under anesthesia with a mixed gas of isoflurane/air, and ten minutes after the injection, the rat was sacrificed by exsanguination. From the thus sacrificed rat, blood and organs (heart, lung, stomach, liver, spleen, small intestine, large intestine, kidney, bladder (including urine), muscle (lower limbs), brain, adrenal gland, testis, fat, femur, or thyroid gland) were excised, and the weights thereof were then measured. Thereafter, radioactivity was measured in the blood, the individual excised organs, and the remaining whole body. Further, 30 and 60 minutes after the administration, the same operations as those described above were carried out. […] The symbol “n” in Tables 9 to 23 indicates the number of rats used. In addition, Tables 9 to 23 also show the ratio of radioactivity accumulation in adrenal grand (% ID/g) to radioactivity accumulation in each of blood, liver, kidney, small intestine, muscle and fat (% ID/g).

## COC(=O)c1cncn1[C@H](C)c1ccc(I)cc1 [[^123I] IMTO, (R)-[^123I]iodometomidate, reference compound]
[1]; FIGS. 18 to 31
  accumulation of radioactivity in adrenal gland section (autoradiogram): accumulation of radioactivity was observed in the entire adrenal gland section
[1]; section of FIG. 17(a)
  B2/B1 accumulation ratio: 0.84
[1]; section of FIG. 17(a), site 71a
  B2 (PSL value, aldosterone-producing adenoma): 7863
[1]; section of FIG. 17(a), site 72a
  B1 (PSL value, normal adrenal cortex): 9415
[1]; section of FIG. 17(b)
  B2/B1 accumulation ratio: 0.79
[1]; section of FIG. 17(b), site 71b
  B2 (PSL value, aldosterone-producing adenoma): 6649
[1]; section of FIG. 17(b), site 72b
  B1 (PSL value, normal adrenal cortex): 8453
[2]; 10 min after administration
  Adrenal gland/blood ratio of radioactivity accumulation: 15.93 ± 4.94
  Adrenal gland/kidney ratio of radioactivity accumulation: 31.76 ± 10.16
  Adrenal gland/liver ratio of radioactivity accumulation: 6.72 ± 2.00
  Adrenal gland/muscle ratio of radioactivity accumulation: 126.18 ± 54.27
  Adrenal gland/small intestine ratio of radioactivity accumulation: 35.65 ± 9.43
  Radioactivity distribution Adrenal gland: 22.14 ± 6.98 % ID/g
  Radioactivity distribution Bladder (including urine): 0.25 ± 0.27 % ID/g
  Radioactivity distribution Blood: 1.40 ± 0.13 % ID/g
  Radioactivity distribution Heart: 0.48 ± 0.07 % ID/g
  Radioactivity distribution Kidney: 0.70 ± 0.01 % ID/g
  Radioactivity distribution Large intestine: 0.10 ± 0.02 % ID/g
  Radioactivity distribution Liver: 3.29 ± 0.08 % ID/g
  Radioactivity distribution Lung: 0.72 ± 0.05 % ID/g
  Radioactivity distribution Muscle (lower limbs): 0.18 ± 0.05 % ID/g
  Radioactivity distribution Remaining whole body: 0.29 ± 0.00 % ID/g
  Radioactivity distribution Small intestine: 0.62 ± 0.03 % ID/g
  Radioactivity distribution Spleen: 0.30 ± 0.02 % ID/g
  Radioactivity distribution Stomach: 0.52 ± 0.18 % ID/g
  Radioactivity distribution Testis: 0.52 ± 0.08 % ID/g
  Radioactivity distribution Thyroid gland: 1.30 ± 1.05 % ID/g
  Radioactivity distribution Whole brain: 0.30 ± 0.02 % ID/g
[2]; 30 min after administration
  Adrenal gland/blood ratio of radioactivity accumulation: 6.84 ± 2.49
  Adrenal gland/kidney ratio of radioactivity accumulation: 16.66 ± 8.95
  Adrenal gland/liver ratio of radioactivity accumulation: 9.74 ± 4.16
  Adrenal gland/muscle ratio of radioactivity accumulation: 97.10 ± 32.37
  Adrenal gland/small intestine ratio of radioactivity accumulation: 25.49 ± 8.31
  Radioactivity distribution Adrenal gland: 17.66 ± 7.43 % ID/g
  Radioactivity distribution Bladder (including urine): 0.39 ± 0.08 % ID/g
  Radioactivity distribution Blood: 2.55 ± 0.16 % ID/g
  Radioactivity distribution Heart: 0.74 ± 0.03 % ID/g
  Radioactivity distribution Kidney: 1.10 ± 0.12 % ID/g
  Radioactivity distribution Large intestine: 0.12 ± 0.01 % ID/g
  Radioactivity distribution Liver: 1.82 ± 0.04 % ID/g
  Radioactivity distribution Lung: 0.90 ± 0.09 % ID/g
  Radioactivity distribution Muscle (lower limbs): 0.18 ± 0.02 % ID/g
  Radioactivity distribution Remaining whole body: 0.31 ± 0.03 % ID/g
  Radioactivity distribution Small intestine: 0.68 ± 0.06 % ID/g
  Radioactivity distribution Spleen: 0.43 ± 0.04 % ID/g
  Radioactivity distribution Stomach: 0.46 ± 0.11 % ID/g
  Radioactivity distribution Testis: 0.32 ± 0.04 % ID/g
  Radioactivity distribution Thyroid gland: 0.81 ± 0.16 % ID/g
  Radioactivity distribution Whole brain: 0.18 ± 0.02 % ID/g
[2]; 60 min after administration
  Adrenal gland/blood ratio of radioactivity accumulation: 6.73 ± 2.57
  Adrenal gland/kidney ratio of radioactivity accumulation: 18.20 ± 8.58
  Adrenal gland/liver ratio of radioactivity accumulation: 14.20 ± 5.28
  Adrenal gland/muscle ratio of radioactivity accumulation: 120.14 ± 30.92
  Adrenal gland/small intestine ratio of radioactivity accumulation: 24.59 ± 8.26
  Radioactivity distribution Adrenal gland: 19.70 ± 8.14 % ID/g
  Radioactivity distribution Bladder (including urine): 0.68 ± 0.30 % ID/g
  Radioactivity distribution Blood: 2.91 ± 0.09 % ID/g
  Radioactivity distribution Heart: 0.77 ± 0.03 % ID/g
  Radioactivity distribution Kidney: 1.10 ± 0.10 % ID/g
  Radioactivity distribution Large intestine: 0.14 ± 0.02 % ID/g
  Radioactivity distribution Liver: 1.37 ± 0.06 % ID/g
  Radioactivity distribution Lung: 1.01 ± 0.03 % ID/g
  Radioactivity distribution Muscle (lower limbs): 0.16 ± 0.02 % ID/g
  Radioactivity distribution Remaining whole body: 0.34 ± 0.01 % ID/g
  Radioactivity distribution Small intestine: 0.79 ± 0.11 % ID/g
  Radioactivity distribution Spleen: 0.39 ± 0.03 % ID/g
  Radioactivity distribution Stomach: 0.41 ± 0.05 % ID/g
  Radioactivity distribution Testis: 0.33 ± 0.02 % ID/g
  Radioactivity distribution Thyroid gland: 1.29 ± 0.25 % ID/g
  Radioactivity distribution Whole brain: 0.11 ± 0.00 % ID/g
